Measurements from PubChem BioAssay AID1259411 (Chemical Carcinogenesis Research Information System (CCRIS), 2018).
Entries after “also recorded” stand apart in the source; their conditions may differ. Activity calls are given as the source filed them. The rule behind the calls is not given here.

Test system: rodent carcinogenicity bioassays, tumor incidence
Experiment: CCRIS carcinogenicity studies
In short: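 Archive of carcinogenicity, mutagenicity, tumor promotion and tumor inhibition results drawn from journals, NCI reports and other sources, expert-reviewed; covers 1985-2011 and is no longer updated.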

`Cn1c(N)nc2c3cccnc3ccc21` was tested, and the carcinogen call (Species: MONKEY, Strain/Sex: MACAQUE/MALE,FEMALE, Route: GAVAGE, Dose: 0, 10, 20 MG/KG 5/D/WK FOR DURATION OF STUDY (STUDY DURATION: 91 MO), Dose: 0, 10, 20 MG/KG 5/D/WK FOR DURATION OF STUDY (STUDY DURATION: 91 MO), Tumor Site: Type of Lesion: LIVER: HEPATOCELLULAR CARCINOMA) was “active; positive”, the carcinogen call (Species: MOUSE, Strain/Sex: B6C3F1/MALE, Route: INTRAPERITONEAL, Dose: 0, 0.625 UMOL IN 35 µL DMSO ON D 1, 8, AND 15 AFTER BIRTH (STUDY DURATION: 8 MO), Tumor Site: Type of Lesion: LIVER: HEPATOCELLULAR ADENOMA) was “active; positive” and the carcinogen call (Species: MOUSE, Strain/Sex: B6C3F1/MALE, Route: INTRAPERITONEAL, Dose: 0, 0.625 UMOL IN 35 µL DMSO ON D 1, 8, AND 15 AFTER BIRTH (STUDY DURATION: 12 MO), Tumor Site: Type of Lesion: LIVER: HEPATOCELLULAR ADENOMA) was “active; positive”. The carcinogen call (Species: MOUSE, Strain/Sex: B6C3F1/MALE, Route: INTRAPERITONEAL, Dose: 0, 1.25 UMOL IN 35 µL DMSO ON D 1, 8, AND 15 AFTER BIRTH (STUDY DURATION: 8 MO), Tumor Site: Type of Lesion: LIVER: HEPATOCELLULAR ADENOMA) was “active; positive”, the carcinogen call (Species: MOUSE, Strain/Sex: B6C3F1/MALE, Route: INTRAPERITONEAL, Dose: 0, 1.25 UMOL IN 35 µL DMSO ON D 1, 8, AND 15 AFTER BIRTH (STUDY DURATION: 12 MO), Tumor Site: Type of Lesion: LIVER: HEPATOCELLULAR ADENOMA, HEPATOCELLULAR CARCINOMA) was “active; positive” and the carcinogen call (Species: MOUSE, Strain/Sex: CD-1/FEMALE, Route: INTRAPERITONEAL, ORAL, Dose: 0, 5 µL OF A 14 MG/ML SOLUTION IN DMSO ON DAYS 1, 3, 5, 7, 10, 13, 17, 21, 24 AND 28 OF LIFE THEN 2/WK TO WK 10 FOLLOWED, Tumor Site: Type of Lesion: LIVER: CARCINOMA, LUNG: ADENOMA) was “active; positive”. The carcinogen call (Species: MOUSE, Strain/Sex: CD-1/MALE, Route: INTRAPERITONEAL, ORAL, Dose: 0, 5 µL OF A 14 MG/ML SOLUTION IN DMSO ON DAYS 1, 3, 5, 7, 10, 13, 17, 21, 24 AND 28 OF LIFE THEN 2/WK TO WK 10 FOLLOWED, Tumor Site: Type of Lesion: LIVER: CARCINOMA) was “active; positive”, the carcinogen call (Species: MOUSE, Strain/Sex: CDF1/FEMALE, Route: ORAL, Dose: 0, 0.03% IN DIET FOR UP TO 675 D (STUDY DURATION: 675 D), Tumor Site: Type of Lesion: LIVER: HEPATOCELLULAR ADENOMA OR CARCINOMA OR HEMANGIOENDOTHELIOMA, FORESTOMACH: PAPILLOMA OR SQUAMOUS CELL CARCINOMA, L, Tumor Site: Type of Lesion: LIVER: HEPATOCELLULAR ADENOMA OR CARCINOMA OR HEMANGIOENDOTHELIOMA, FORESTOMACH: PAPILLOMA OR SQUAMOUS CELL CARCINOMA, L) was “active; positive” and the carcinogen call (Species: MOUSE, Strain/Sex: CDF1/MALE, Route: ORAL, Dose: 0, 0.03% IN DIET FOR UP TO 675 D (STUDY DURATION: 675 D), Tumor Site: Type of Lesion: LIVER: HEPATOCELLULAR ADENOMA OR CARCINOMA OR HEMANGIOENDOTHELIOMA, FORESTOMACH: PAPILLOMA OR SQUAMOUS CELL CARCINOMA, L, Tumor Site: Type of Lesion: LIVER: HEPATOCELLULAR ADENOMA OR CARCINOMA OR HEMANGIOENDOTHELIOMA, FORESTOMACH: PAPILLOMA OR SQUAMOUS CELL CARCINOMA, L) was “active; positive”. For the same molecule, the carcinogen call (Species: MOUSE, Strain/Sex: EU-PIM-1/FEMALE, Route: ORAL, Dose: 0, 0.03% IN DIET FOR 24 WK (STUDY DURATION: 40 WK)) was “inactive; negative”, the carcinogen call (Species: MOUSE, Strain/Sex: EU-PIM-1/MALE, Route: ORAL, Dose: 0, 0.03% IN DIET FOR 24 WK (STUDY DURATION: 40 WK)) was “inactive; negative” and the carcinogen call (Species: MOUSE, Strain/Sex: NON-TRANSGENIC WILD-TYPE/FEMALE, Route: ORAL, Dose: 0, 0.03% IN DIET FOR 24 WK (STUDY DURATION: 40 WK)) was “inactive; negative”. The carcinogen call (Species: MOUSE, Strain/Sex: NON-TRANSGENIC WILD-TYPE/MALE, Route: ORAL, Dose: 0, 0.03% IN DIET FOR 24 WK (STUDY DURATION: 40 WK)) was “inactive; negative”, the carcinogen call (Species: MOUSE, Strain/Sex: SEVERE COMBINED IMMUNODEFICIENT/FEMALE, Route: ORAL, Dose: 0, 300 PPM IN THE DIET FOR 78 WK (STUDY DURATION: 78 WK), Tumor Site: Type of Lesion: LIVER: HEPATOCELLULAR CARCINOMA) was “active; positive” and the carcinogen call (Species: MOUSE, Strain/Sex: TRANSGENIC EU-PIM-1/FEMALE, Route: ORAL, Dose: 0, 0.03% IN DIET FOR 24 WK (STUDY DURATION: 40 WK)) was “inactive; negative”. For the same molecule, the carcinogen call (Species: MOUSE, Strain/Sex: TRANSGENIC EU-PIM-1/MALE, Route: ORAL, Dose: 0, 0.03% IN DIET FOR 24 WK (STUDY DURATION: 40 WK)) was “inactive; negative”, the carcinogen call (Species: MOUSE, Strain/Sex: WILD-TYPE/FEMALE, Route: ORAL, Dose: 0, 0.03% IN DIET FOR 24 WK (STUDY DURATION: 40 WK)) was “inactive; negative” and the carcinogen call (Species: MOUSE, Strain/Sex: WILD-TYPE/MALE, Route: ORAL, Dose: 0, 0.03% IN DIET FOR 24 WK (STUDY DURATION: 40 WK)) was “inactive; negative”. For the same molecule, the carcinogen call (Species: Mouse, Strain/Sex: Non transgenic rasH2 Wild-type/ Female (10/10)/(15/15), Route: Oral, Dose: 300 ppm in the diet starting at 7 weeks of age (Study duration: 26 weeks)) was “inactive; negative: although only hyperplasia observed in wild-type mouse, forestomach pa”, the carcinogen call (Species: Mouse, Strain/Sex: Non transgenic rasH2 Wild-type/ Male (10/10)/(15/15), Route: Oral, Dose: 300 ppm in the diet starting at 7 weeks of age (Study duration: 26 wks)) was “inactive; negative; although only hyperplasia observed in wild-type mouse, forestomach pa” and the carcinogen call (Species: Mouse, Strain/Sex: Parp-1+/+ C57BL/6/Male, Route: Oral, Dose: 300 ppm in diet for 60 wk, study duration 60 wk, Tumor Site: Type of Lesion: Spleen: Malignant lymphoma (3/18)) was “active; positive (no lung adenomas or forestomach papillomas found). parp-1 deficiency (; also recorded: active; positive (however, no lung adenomas or forestomach papillomas found. parp-1 defi”. For the same molecule, the carcinogen call (Species: RAT, Strain/Sex: F344/MALE, Route: INTRARECTAL, Dose: 0, 50.5 MG/KG IN 1.7 ML/KG DMSO INFUSED 3/WK FOR 2 MO THEN 2/WK FOR DURATION OF STUDY (STUDY DURATION: 18 MO), Tumor Site: Type of Lesion: COLON: CARCINOMA, SKIN: SEBACEOUS SQUAMOUS CELL CARCINOMA) was “active; positive”, the carcinogen call (Species: RAT, Strain/Sex: SPRAGUE-DAWLEY/FEMALE, Route: GAVAGE, Dose: 0, 0.35 MMOL/KG BW IN 0.25 ML OF 5% EMULPHOR IN WATER 3/WK FOR WK 1-4 THEN 2/WK FOR WK 5-8 FOLLOWED BY 1/WK FOR 23 WK (S, Tumor Site: Type of Lesion: MAMMARY GLAND: CARCINOMA, LIVER: TUMOR, EAR DUCT: TUMOR, Tumor Site: Type of Lesion: MAMMARY GLAND: CARCINOMA, LIVER: TUMOR, EAR DUCT: TUMOR) was “active; positive” and the carcinogen call (Species: RAT, Strain/Sex: WISTAR/MALE, Route: INTRAGASTRIC, Dose: 0, 10 MG/KG IN ACIDIFIED WATER 1/D FOR 2 WK (STUDY DURATION: 58 WK)) was “inactive; negative”.

`O[C@@H]1[C@@H](O)[C@@H](O)OC[C@H]1O` was tested, and the carcinogen call (Species: RAT, Strain/Sex: F344/FEMALE, Route: ORAL (DIET), Dose: 0, 2.5%, 5% FOR 104 WKS (STUDY DURATION: 104 WKS), Dose: 0, 2.5%, 5% FOR 104 WKS (STUDY DURATION: 104 WKS)) was “inactive; negative” and the carcinogen call (Species: RAT, Strain/Sex: F344/MALE, Route: ORAL (DIET), Dose: 0, 2.5%, 5% FOR 104 WKS (STUDY DURATION: 104 WKS), Dose: 0, 2.5%, 5% FOR 104 WKS (STUDY DURATION: 104 WKS)) was “inactive; negative”.

With `COc1cc2c(c3oc(=O)c4c(c13)CC[C@@H]4O)[C@@H]1C=CO[C@@H]1O2` the carcinogen call (Species: FISH, Strain/Sex: SHASTA RAINBOW TROUT/MALE, FEMALE, Route: IMMERSION, Dose: 0, 0.01, 0.025, 0.05, 0.1, 0.25, 0.5 PPM SOLUTION IN WATER FOR 1 HR EXPOSURE OF EMBRYOS (STUDY DURATION: 13 MO), Dose: 0, 0.01, 0.025, 0.05, 0.1, 0.25, 0.5 PPM SOLUTION IN WATER FOR 1 HR EXPOSURE OF EMBRYOS (STUDY DURATION: 13 MO), Tumor Site: Type of Lesion: LIVER: TUMORS) was “active; positive”, the carcinogen call (Species: FISH, Strain/Sex: SHASTA RAINBOW TROUT/MALE, FEMALE, Route: ORAL, Dose: 0, 4, 8, 16, 32, 64 PPB IN DIET FOR 2 WK FOLLOWED BY CONTROL DIET FOR THE DURATION OF STUDY (STUDY DURATION: 9 MO), Dose: 0, 4, 8, 16, 32, 64 PPB IN DIET FOR 2 WK FOLLOWED BY CONTROL DIET FOR THE DURATION OF STUDY (STUDY DURATION: 9 MO), Tumor Site: Type of Lesion: LIVER: TUMOR) was “active; positive” and the carcinogen call (Species: RAT, Strain/Sex: F344/MALE, Route: ORAL, Dose: 50, 200 PPB IN DIET 2/WK FOR 12 MO, Tumor Site: Type of Lesion: LIVER: HEPATOCELLULAR CARCINOMA) was “active; positive”. The carcinogen call (Species: TROUT, Strain/Sex: MT. SHASTA RAINBOW, Route: ORAL, Dose: 29 PPB IN DIET FOR 12 MO, Tumor Site: Type of Lesion: LIVER: HEPATOCELLULAR CARCINOMA) was “active; positive”.
